Non-standard residues stand in square brackets, D forms with d. Residues, ends and D or L forms follow the SMILES beside them. NMeR = CN[C@@H](CCCNC(=N)N)C(=O)O; Nle = CCCC[C@H](N)C(=O)O
Key:
[1] = target: T1, CD47 (membrane preparation from MEC-1 cells) (Homo sapiens, UniProt Q08722); experiment: Binding affinity by biolayer interferometry (Octet RED96) on biotinylated MEC-1 cell membrane preparation; settings: NPD = Non Pertinent Data; for Kd (μM): Table 3, average of two or more measurements; for Kd(μM)PR: Table 4, N-methyl peptides
T1 construct: MEC-1 cell membrane preparation were biotinylated with the EZ-Link NHS-PEG4-Biotin kit; endogenous in cells; host or cells: MEC-1 cells (membrane preparation)
T1 sequence (Q08722 19-323): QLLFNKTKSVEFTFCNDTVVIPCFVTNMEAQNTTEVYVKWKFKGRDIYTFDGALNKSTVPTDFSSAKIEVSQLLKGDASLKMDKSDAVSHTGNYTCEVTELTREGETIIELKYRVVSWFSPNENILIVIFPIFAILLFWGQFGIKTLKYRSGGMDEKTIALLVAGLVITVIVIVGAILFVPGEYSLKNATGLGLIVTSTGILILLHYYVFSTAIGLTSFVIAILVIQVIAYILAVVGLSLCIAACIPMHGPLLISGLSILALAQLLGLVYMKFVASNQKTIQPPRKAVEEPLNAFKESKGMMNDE
Experimental: The binding affinities of peptides for a membrane preparation from MEC-1 cells were measured by biolayer interferometry on an Octet RED96 System (Pall FortéBio Corp., Menlo Park, Calif.).
The binding affinities of peptides for a membrane preparation from MEC-1 cells were measured by biolayer interferometry on an Octet RED96 System (Pall FortéBio Corp., Menlo Park, Calif.). This system monitors interference of light reflected from two sources (an internal reflection surface and the liquid/solid interface of a fiber optic sensor) to measure the rate of binding of molecules to the biosensor surface.
MEC-1 cell membrane preparation were biotinylated with the EZ-Link NHS-PEG4-Biotin kit from Thermo-Scientific. Biotinylated membranes were then loaded onto SuperStreptavidin (SSA) biosensors (Pall FortéBio Corp.) at empirically determined concentrations.
In order to highlight the pharmacological properties of these peptides, a systematic SAR study by the development of a binding assay allowing to the assessment of the affinity of the 4N1K analogues to CD47 was initiated. […] An Ala-scan to identify the pharmacophores of 4N1K was implemented.
The binding affinities of peptides for a MEC-1 cells membrane preparation were measured by biolayer interferometry on an Octet RED96 System (Pall FortéBio Corp., Menlo Park, Calif.). This system monitors interference of light reflected from two sources (an internal reflection surface and the liquid/solid interface of a fiber optic sensor) to measure the rate of binding of molecules to the biosensor surface. MEC-1 cells membrane preparation is biotinylated with the EZ-Link NHS-PEG4-Biotin kit from Thermo-Scientific and excess biotin is removed using desalting column from Thermo-Scientific. Biotinylated membranes are then loaded onto SuperStreptavidin (SSA) biosensors (Pall FortéBio Corp.) at empirically determined concentrations. […] Typically, the biosensors were pre-equilibrated in PBS containing either biotinylated membranes or biocytine 100 μg/mL. Biosensors are then equilibrated in assay buffer for 10 min, brought to baseline in assay buffer for 60 sec. and transferred to wells containing peptide in dose-response (association for 120 sec. and dissociation for 300 sec.). The double reference with either membrane-loaded biosensors without any peptide dose-response or biocytine-loaded biosensors with each peptide dose-response were run in parallel for background signal double subtractions. Binding kinetics were calculated using the FortéBio Data Analysis v8.2 software.

[2] = tested on: MEC-1 cells; experiment: MEC-1 cell death (PCD) after 2 h peptide treatment; format: cell-based; settings: for MEC-1 Cell Death (%) 2 h, [peptides] = 200 μM: Table 3, 200 μM peptide; for Cell Death (MEC-1, 2 h): Table 4
Experimental: Then the peptides structures were tested via NMR and X-ray. The peptides were also tested for their activity on MEC-1 and their KDs and Retention times on LCMS were determined.

CSCC[C@H](NC(=O)[C@@H](NC(=O)[C@@H](NC(=O)[C@H](Cc1ccc(O)cc1)NC(=O)[C@H](C)NC(=O)[C@H](CCCNC(=N)N)NC(=O)[C@H](N)CCCCN)C(C)C)C(C)C)C(=O)N[C@@H](Cc1c[nH]c2ccccc12)C(=O)N[C@@H](CCCCN)C(=O)N[C@H](CCCCN)C(=O)O [F3/A, kR(A)YVVMWKk] (H-[dK]RAYVVMWK[dK]-OH; N-terminus and C-terminus assumed)
Kd (μM) [1]: NPD | MEC-1 Cell Death (%) 2 h, [peptides] = 200 μM [2]: 6%

CSCC[C@H](NC(=O)[C@@H](NC(=O)[C@@H](NC(=O)[C@H](Cc1ccc(O)cc1)NC(=O)[C@H](Cc1ccccc1)NC(=O)[C@H](CCCNC(=N)N)NC(=O)[C@H](N)CCCCN)C(C)C)C(C)C)C(=O)N[C@@H](Cc1c[nH]c2ccccc12)C(=O)N[C@@H](C)C(=O)N[C@H](CCCCN)C(=O)O [K9/A, kRFYVVMW(A)k] (H-[dK]RFYVVMWA[dK]-OH)
MEC-1 Cell Death (%) 2 h, [peptides] = 200 μM [2]: 46%

CC(C)[C@H](NC(=O)[C@H](Cc1ccc(O)cc1)NC(=O)[C@H](Cc1ccccc1)NC(=O)[C@H](CCCNC(=N)N)NC(=O)[C@H](N)CCCCN)C(=O)N[C@H](C(=O)N[C@@H](C)C(=O)N[C@@H](Cc1c[nH]c2ccccc12)C(=O)N[C@@H](CCCCN)C(=O)N[C@H](CCCCN)C(=O)O)C(C)C [M7/A, kRFYVV(A)WKk] (H-[dK]RFYVVAWK[dK]-OH; N-terminus and C-terminus assumed)
MEC-1 Cell Death (%) 2 h, [peptides] = 200 μM [2]: 6%

CCCC[C@H](NC(=O)[C@@H](NC(=O)[C@@H](NC(=O)[C@H](Cc1ccc(O)cc1)NC(=O)[C@H](Cc1ccccc1)NC(=O)[C@H](CCCNC(=N)N)NC(=O)[C@H](N)CCCCN)C(C)C)C(C)C)C(=O)N[C@@H](Cc1c[nH]c2ccccc12)C(=O)N[C@@H](CCCCN)C(=O)N[C@H](CCCCN)C(=O)O [M/Nle, kRFYVV(Nle)WKk] (H-[dK]RFYVV[Nle]WK[dK]-OH)
MEC-1 Cell Death (%) 2 h, [peptides] = 200 μM [2]: 47%

CSCC[C@H](NC(=O)[C@H](C(C)C)N(C)C(=O)[C@@H](NC(=O)[C@H](Cc1ccc(O)cc1)NC(=O)[C@H](Cc1ccccc1)NC(=O)[C@H](CCCNC(=N)N)NC(=O)[C@H](N)CCCCN)C(C)C)C(=O)N[C@@H](Cc1c[nH]c2ccccc12)C(=O)N[C@@H](CCCCN)C(=O)N[C@H](CCCCN)C(=O)O [PKT7, H-(D)K R F Y V ψ(CONMe)V M W K (D)K-OH]
Kd(μM)PR [1]: NPD | Cell Death (MEC-1, 2 h) [2]: 0%

CSCC[C@H](NC(=O)[C@@H](NC(=O)[C@H](C(C)C)N(C)C(=O)[C@H](Cc1ccc(O)cc1)NC(=O)[C@H](Cc1ccccc1)NC(=O)[C@H](CCCNC(=N)N)NC(=O)[C@H](N)CCCCN)C(C)C)C(=O)N[C@@H](Cc1c[nH]c2ccccc12)C(=O)N[C@@H](CCCCN)C(=O)N[C@H](CCCCN)C(=O)O [PKT8, H-(D)K R F Y ψ(CONMe)V V M W K (D)K-OH]
Kd(μM)PR [1]: NPD | Cell Death (MEC-1, 2 h) [2]: 0%

CSCC[C@H](NC(=O)[C@@H](NC(=O)[C@@H](NC(=O)[C@H](Cc1ccc(O)cc1)N(C)C(=O)[C@H](Cc1ccccc1)NC(=O)[C@H](CCCNC(=N)N)NC(=O)[C@H](N)CCCCN)C(C)C)C(C)C)C(=O)N[C@@H](Cc1c[nH]c2ccccc12)C(=O)N[C@@H](CCCCN)C(=O)N[C@H](CCCCN)C(=O)O [PKT9, H-(D)K R F ψ(CONMe)Y V V M W K (D)K-OH]
Kd(μM)PR [1]: NPD | Cell Death (MEC-1, 2 h) [2]: 0%

CSCC[C@H](NC(=O)[C@@H](NC(=O)[C@@H](NC(=O)[C@H](Cc1ccc(O)cc1)NC(=O)[C@H](Cc1ccccc1)N(C)C(=O)[C@H](CCCNC(=N)N)NC(=O)[C@H](N)CCCCN)C(C)C)C(C)C)C(=O)N[C@@H](Cc1c[nH]c2ccccc12)C(=O)N[C@@H](CCCCN)C(=O)N[C@H](CCCCN)C(=O)O [PKT10, H-(D)K R ψ(CONMe)F Y V V M W K (D)K-OH]
Kd(μM)PR [1]: NPD | Cell Death (MEC-1, 2 h) [2]: 0%

CSCC[C@H](NC(=O)[C@@H](NC(=O)[C@@H](NC(=O)[C@H](Cc1ccc(O)cc1)NC(=O)[C@H](Cc1ccccc1)NC(=O)[C@H](CCCNC(=N)N)N(C)C(=O)[C@H](N)CCCCN)C(C)C)C(C)C)C(=O)N[C@@H](Cc1c[nH]c2ccccc12)C(=O)N[C@@H](CCCCN)C(=O)N[C@H](CCCCN)C(=O)O [PKT11, H-(D)K ψ(CONMe)R F Y V V M W K (D)K-OH]
Cell Death (MEC-1, 2 h) [2]: 60%

CSCC[C@H](NC(=O)[C@@H](NC(=O)[C@@H](NC(=O)[C@H](Cc1ccc(O)cc1)NC(=O)[C@H](Cc1ccccc1)NC(=O)[C@H](CCCNC(=N)N)NC(=O)[C@H](N)CCCCN)C(C)C)C(C)C)C(=O)N(C)[C@@H](Cc1c[nH]c2ccccc12)C(=O)N[C@@H](CCCCN)C(=O)N[C@H](CCCCN)C(=O)O [PKT12, H-(D)K R F Y V V M ψ(CONMe)W K (D)K-OH]
Kd(μM)PR [1]: NPD | Cell Death (MEC-1, 2 h) [2]: 0%

CSCC[C@H](NC(=O)[C@@H](NC(=O)[C@@H](NC(=O)[C@H](Cc1ccc(O)cc1)NC(=O)[C@H](Cc1ccccc1)NC(=O)[C@H](CCCNC(=N)N)N(C)C(=O)[C@H](N)CCCCN)C(C)C)C(C)C)C(=O)N[C@@H](Cc1c[nH]c2ccccc12)C(=O)N(C)[C@@H](CCCCN)C(=O)N[C@H](CCCCN)C(=O)O [PKT15, H-(D)K ψ(CONMe)R F Y V V M W ψ(CONMe)K (D)K-OH]
Cell Death (MEC-1, 2 h) [2]: 10%

CC(C)C[C@H](NC(=O)[C@@H](NC(=O)[C@@H](NC(=O)[C@H](Cc1ccc(O)cc1)NC(=O)[C@H](Cc1ccccc1)NC(=O)[C@H](CCCNC(=N)N)N(C)C(=O)[C@H](N)CCCCN)C(C)C)C(C)C)C(=O)N[C@@H](Cc1c[nH]c2ccccc12)C(=O)N[C@@H](CCCCN)C(=O)N[C@H](CCCCN)C(=O)O [PKT17, H-(D)K ψ(CONMe)R F Y V V L W K (D)K-OH] (H-[dK][NMeR]FYVVLWK[dK]-OH)
Cell Death (MEC-1, 2 h) [2]: 30%

CSCC[C@H](NC(=O)[C@@H](NC(=O)[C@@H](NC(=O)[C@H](Cc1ccc(O)cc1)NC(=O)[C@H](Cc1ccccc1)NC(=O)[C@H](C)NC(=O)[C@H](N)CCCCN)C(C)C)C(C)C)C(=O)N[C@@H](Cc1c[nH]c2ccccc12)C(=O)N[C@@H](CCCCN)C(=O)N[C@H](CCCCN)C(=O)O [R2/A, k(A)FYVVMWKk] (H-[dK]AFYVVMWK[dK]-OH)
MEC-1 Cell Death (%) 2 h, [peptides] = 200 μM [2]: 44%

CSCC[C@H](NC(=O)[C@@H](NC(=O)[C@H](C)NC(=O)[C@H](Cc1ccc(O)cc1)NC(=O)[C@H](Cc1ccccc1)NC(=O)[C@H](CCCNC(=N)N)NC(=O)[C@H](N)CCCCN)C(C)C)C(=O)N[C@@H](Cc1c[nH]c2ccccc12)C(=O)N[C@@H](CCCCN)C(=O)N[C@H](CCCCN)C(=O)O [V5/A, kRFY(A)VMWKk] (H-[dK]RFYAVMWK[dK]-OH; N-terminus and C-terminus assumed)
Kd (μM) [1]: NPD | MEC-1 Cell Death (%) 2 h, [peptides] = 200 μM [2]: 12%

CSCC[C@H](NC(=O)[C@H](C)NC(=O)[C@@H](NC(=O)[C@H](Cc1ccc(O)cc1)NC(=O)[C@H](Cc1ccccc1)NC(=O)[C@H](CCCNC(=N)N)NC(=O)[C@H](N)CCCCN)C(C)C)C(=O)N[C@@H](Cc1c[nH]c2ccccc12)C(=O)N[C@@H](CCCCN)C(=O)N[C@H](CCCCN)C(=O)O [V6/A, kRFYV(A)MWKk] (H-[dK]RFYVAMWK[dK]-OH; N-terminus and C-terminus assumed)
Kd (μM) [1]: NPD | MEC-1 Cell Death (%) 2 h, [peptides] = 200 μM [2]: 30%

CSCC[C@H](NC(=O)[C@@H](NC(=O)[C@@H](NC(=O)[C@H](Cc1ccc(O)cc1)NC(=O)[C@H](Cc1ccccc1)NC(=O)[C@H](CCCNC(=N)N)NC(=O)[C@H](N)CCCCN)C(C)C)C(C)C)C(=O)N[C@@H](C)C(=O)N[C@@H](CCCCN)C(=O)N[C@H](CCCCN)C(=O)O [W8/A, kRFYVVM(A)Kk] (H-[dK]RFYVVMAK[dK]-OH; N-terminus and C-terminus assumed)
Kd (μM) [1]: NPD | MEC-1 Cell Death (%) 2 h, [peptides] = 200 μM [2]: 35%

CSCC[C@H](NC(=O)[C@@H](NC(=O)[C@@H](NC(=O)[C@H](Cc1ccc(O)cc1)NC(=O)[C@H](Cc1ccccc1)NC(=O)[C@H](CCCNC(=N)N)NC(=O)[C@H](CCCCN)NC(C)=O)C(C)C)C(C)C)C(=O)N[C@@H](Cc1c[nH]c2ccccc12)C(=O)N[C@@H](CCCCN)C(=O)N[C@@H](CCCCN)C(N)=O [compound 2] (Ac-KRFYVVMWKK-NH2)
MEC-1 Cell Death (%) 2 h ([2]; Table 2, NPD = Non Pertinent Data): 30%

H-(D)K ψ(CONMe)R F Y VV I W K (D)K-OH [PKT18]
Cell Death (MEC-1, 2 h) [2]: 45%
